Laboratory results published in patent US11324768B2, “Applications of triacetyl-3-hydroxyl phenyl adenosine in treating vascular inflammations or improving vascular endothelium functions” (priority 2016, dated 2022).

What was measured:
[1] = system: third-order mesenteric artery; experiment: Mesenteric microvascular endothelial function in ApoE−/− mice (pressure myography, Ach / SNP relaxation); format: in vivo
Protocol: (§1) After 1 week of adaptive feeding, the animals were randomly divided into 7 groups according to body weight: normal control group, model control group A769662 (30 mg/kg) administration group, metformin (260 mg/kg) administration group, IMM-H007 low, medium, and high administration groups (50, 100, 200 mg/kg), 8 in each group, and were given a high-fat diet (78.6% basal diet, 10% lard, 1.0% cholesterol, 10% egg yolk powder, and 0.4% bile salt), and simultaneously administered intragastrically at a dose of 0.1 ml/10 g body weight, and were continuously administered and fed for 8 weeks to establish an atherosclerosis model.
PSS and KPSS solutions were configured according to the instructions and used at the same time of the day. The PSS solution was taken out before the start of the experiment and pre-oxygenated for about 20 min. The ApoE−/− mice, which were fed with high-fat and simultaneously administered for 10 weeks, were anesthetized with pentobarbital sodium. The mice were supine and fixed. The abdominal cavity was opened along the median line. The mesenteric vascular bed was isolated and placed in the pre-oxygenated 20-minute PSS buffer. Under a stereomicroscope, a third-order mesenteric artery with a length of about 3 mm was carefully isolated. Firstly, the blood vessel was fixed to a P1 glass cannula and the coil was tightened. Note: the proximal end should be connected to the P1 end, and the P2 end vessel should be fixed and the coil should be tightened. The Chamber was placed on a objective table of the microscope and the data connection between Chamber and Interface was checked. The bath cover was covered and the oxygen was introduced, to exhaust air in the pipeline. The blood vessel image was found under the microscope and then the microscope was turned to camera mode. (The knob on the side of the eyepiece was rotated to graph.) MyoVIEW software was opened. The Camera window Capture was clicked to display the blood vessel image. The equilibration of blood vessels slowly rose from 10 mmHg to 60 mmHg, and each step was 300 s. After the equilibration procedure was completed, the solution in the bath was drained. Blood vessels were stimulated (10 ml) for 2 min using a 37° C. pre-heated KPSS solution, and changes in vasoconstriction were observed, and the blood vessels were then eluted using the PSS solution to baseline. The blood vessels were equilibrated at 60 mmHg 37° C. for 45 minutes, during which time the fluid was replaced every 20 minutes. The experiment was started: observing the vasodilatory response induced by 10^−10 to 10^−5 M Ach after pre-contraction with 2 μM phenylephrine, to evaluate the effect of the drugs on the vascular endothelial function. At the end of the experiment, the fresh 37° C. pre-heated PSS buffer was replaced for equilibration for 30 min, and the 10^−10M to 10^−3 M sodium nitroprusside were given to induce vasodilatory response after pre-contraction with 2 μM phenylephrine, to evaluate the effect of the drugs on vascular smooth muscle function. LD1 was the diameter of blood vessel after relaxation by administration of different concentrations of ACh or sodium nitroprusside, LD2 was the diameter of blood vessels after pre-contraction with phenylephrine, and LD3 represented the maximum diastolic diameter of blood vessel without any stimulant.
The relaxation response to Ach and sodium nitroprusside after pre-contraction with phenylephrine was expressed as the percentage increase in the vascular diameter: % Relaxation=(LD1−LD2)/(LD3−LD2)×100.

ApoE−/− mice = experiment: Blood lipid levels in high-fat-fed ApoE−/− mice; format: in vivo; conditions: 200 mg/kg, 8 weeks, high-fat diet
Protocol: as §1
(1) Effect of IMM-H007 on Blood Lipid Levels in ApoE−/− Mice: Total Cholesterol (TC), Triglyceride (TG), Low-Density Lipoprotein Cholesterol (LDL), High-Density Lipoprotein Cholesterol (HDL), and Free Fatty Acid (FFA)
Operated according to kit instructions

CC(=O)OCC1OC(n2cnc3c(Nc4cccc(O)c4)ncnc32)C(OC(C)=O)C1OC(C)=O (stereo not shown) [IMM-H007, 2′,3,′ 5′-triacetyl-N^6(3-hydroxyphenyl)adenosine]
sodium nitroprusside endothelium-independent relaxation of microvascular ([1]; 50 mg/kg, 1 × 10^−3 M SNP): 96.5 ± 6.3%
sodium nitroprusside endothelium-independent relaxation of microvascular ([1]; 50 mg/kg, 1 × 10^−4 M SNP): 80.3 ± 12.1%
acetylcholine-induced endothelium-dependent relaxation of microvascular ([1]; 50 mg/kg, 1 × 10^−5 M Ach): 95.0 ± 4.4 %
sodium nitroprusside endothelium-independent relaxation of microvascular ([1]; 50 mg/kg, 1 × 10^−5 M SNP): 74.5 ± 12.8%
acetylcholine-induced endothelium-dependent relaxation of microvascular ([1]; 50 mg/kg, 1 × 10^−6 M Ach): 87.3 ± 5.0 %
sodium nitroprusside endothelium-independent relaxation of microvascular ([1]; 50 mg/kg, 1 × 10^−6 M SNP): 66.4 ± 11.6%
acetylcholine-induced endothelium-dependent relaxation of microvascular ([1]; 50 mg/kg, 1 × 10^−7 M Ach): 48.7 ± 12.8%
sodium nitroprusside endothelium-independent relaxation of microvascular ([1]; 50 mg/kg, 1 × 10^−7 M SNP): 60.9 ± 8.5%
acetylcholine-induced endothelium-dependent relaxation of microvascular ([1]; 50 mg/kg, 1 × 10^−8 M Ach): 29.3 ± 21.8%
sodium nitroprusside endothelium-independent relaxation of microvascular ([1]; 50 mg/kg, 1 × 10^−8 M SNP): 52.9 ± 14.2%
acetylcholine-induced endothelium-dependent relaxation of microvascular ([1]; 50 mg/kg, 1 × 10^−9 M Ach): 12.9 ± 12.6%
sodium nitroprusside endothelium-independent relaxation of microvascular ([1]; 50 mg/kg, 1 × 10^−9 M SNP): 43.9 ± 18.2%
acetylcholine-induced endothelium-dependent relaxation of microvascular ([1]; 50 mg/kg, 1 × 10^−10 M Ach): 5.0 ± 5.1%
sodium nitroprusside endothelium-independent relaxation of microvascular ([1]; 50 mg/kg, 1 × 10^−10 M SNP): 19.9 ± 10.1%
microvascular endothelial dysfunction caused by high fat ([1]; 50 mg/kg, compared with the model control group): significantly improve
sodium nitroprusside endothelium-independent relaxation of microvascular ([1]; 100 mg/kg, 1 × 10^−3 M SNP): 96.5 ± 3.6%
sodium nitroprusside endothelium-independent relaxation of microvascular ([1]; 100 mg/kg, 1 × 10^−4 M SNP): 87.5 ± 10.9%
acetylcholine-induced endothelium-dependent relaxation of microvascular ([1]; 100 mg/kg, 1 × 10^−5 M Ach): 93.9 ± 12.9 %
sodium nitroprusside endothelium-independent relaxation of microvascular ([1]; 100 mg/kg, 1 × 10^−5 M SNP): 78.4 ± 13.0%
acetylcholine-induced endothelium-dependent relaxation of microvascular ([1]; 100 mg/kg, 1 × 10^−6 M Ach): 82.9 ± 8.5 %
sodium nitroprusside endothelium-independent relaxation of microvascular ([1]; 100 mg/kg, 1 × 10^−6 M SNP): 64.6 ± 12.2%
acetylcholine-induced endothelium-dependent relaxation of microvascular ([1]; 100 mg/kg, 1 × 10^−7 M Ach): 43.1 ± 21.8%
sodium nitroprusside endothelium-independent relaxation of microvascular ([1]; 100 mg/kg, 1 × 10^−7 M SNP): 51.5 ± 17.9%
acetylcholine-induced endothelium-dependent relaxation of microvascular ([1]; 100 mg/kg, 1 × 10^−8 M Ach): 18.6 ± 17.2%
sodium nitroprusside endothelium-independent relaxation of microvascular ([1]; 100 mg/kg, 1 × 10^−8 M SNP): 44.9 ± 21.9%
acetylcholine-induced endothelium-dependent relaxation of microvascular ([1]; 100 mg/kg, 1 × 10^−9 M Ach): 10.2 ± 12.0%
sodium nitroprusside endothelium-independent relaxation of microvascular ([1]; 100 mg/kg, 1 × 10^−9 M SNP): 33.9 ± 23.5%
acetylcholine-induced endothelium-dependent relaxation of microvascular ([1]; 100 mg/kg, 1 × 10^−10 M Ach): 2.37 ± 3.4%
sodium nitroprusside endothelium-independent relaxation of microvascular ([1]; 100 mg/kg, 1 × 10^−10 M SNP): 11.9 ± 13.5%
acetylcholine-induced endothelium-dependent relaxation response ([1]; 100 mg/kg, compared with the model control group): significantly improve
sodium nitroprusside endothelium-independent relaxation of microvascular ([1]; 200 mg/kg, 1 × 10^−3 M SNP): 96.9 ± 2.9%
sodium nitroprusside endothelium-independent relaxation of microvascular ([1]; 200 mg/kg, 1 × 10^−4 M SNP): 91.3 ± 6.2%
acetylcholine-induced endothelium-dependent relaxation of microvascular ([1]; 200 mg/kg, 1 × 10^−5 M Ach): 96.9 ± 14.2 %
sodium nitroprusside endothelium-independent relaxation of microvascular ([1]; 200 mg/kg, 1 × 10^−5 M SNP): 75.3 ± 12.6%
acetylcholine-induced endothelium-dependent relaxation of microvascular ([1]; 200 mg/kg, 1 × 10^−6 M Ach): 73.3 ± 17.5 %
sodium nitroprusside endothelium-independent relaxation of microvascular ([1]; 200 mg/kg, 1 × 10^−6 M SNP): 58.0 ± 21.3%
acetylcholine-induced endothelium-dependent relaxation of microvascular ([1]; 200 mg/kg, 1 × 10^−7 M Ach): 42.2 ± 20.8%
sodium nitroprusside endothelium-independent relaxation of microvascular ([1]; 200 mg/kg, 1 × 10^−7 M SNP): 44.9 ± 27.8%
acetylcholine-induced endothelium-dependent relaxation of microvascular ([1]; 200 mg/kg, 1 × 10^−8 M Ach): 32.0 ± 20.1%
sodium nitroprusside endothelium-independent relaxation of microvascular ([1]; 200 mg/kg, 1 × 10^−8 M SNP): 39.4 ± 24.2%
acetylcholine-induced endothelium-dependent relaxation of microvascular ([1]; 200 mg/kg, 1 × 10^−9 M Ach): 18.8 ± 17.5%
sodium nitroprusside endothelium-independent relaxation of microvascular ([1]; 200 mg/kg, 1 × 10^−9 M SNP): 28.9 ± 29.5%
acetylcholine-induced endothelium-dependent relaxation of microvascular ([1]; 200 mg/kg, 1 × 10^−10 M Ach): 9.5 ± 12.0%
sodium nitroprusside endothelium-independent relaxation of microvascular ([1]; 200 mg/kg, 1 × 10^−10 M SNP): 19.4 ± 3.05%
High-density lipoprotein (HDL-C) (ApoE−/− mice): 1.64 ± 1.15
Triglyceride (TG) (ApoE−/− mice): 1.48 ± 0.34
